Calls of active or inactive are those of the source. The rule behind the calls is not given here.
Experiments:
[1] = Toxicity in BALB/c mouse implanted with mouse 4T1 cells assessed as kidney damage at 5 mg/kg, iv measured for 11 days by H and E staining based analysis; type: organism-based; conditions: in vivo, 264 h, time 11 day
[2] = Drug accumulation in BALB/c mouse tumor xenografted with human NCI-H520 cells assessed as increase in fluorescence intensity at 0.5 mg/kg, iv measured at 96 hrs by imaging based analysis; type: ADME, organism-based, Neoplasm; conditions: in vivo
[3] = Antioxidant activity of compound in presence of […]; type: functional
[4] = Partition coefficient, logP of compound; type: physicochemical; conditions: octanol/water
[5] = Drug accumulation in tumor to muscle of BALB/c mouse implanted with mouse 4T1 cells at 0.5 mg/kg, iv measured at 4 to 168 hrs; type: ADME, organism-based; conditions: in vivo, time 4-168 hrs
[6] = Toxicity in BALB/c mouse implanted with mouse 4T1 cells assessed as liver damage at 5 mg/kg, iv measured for 11 days by H and E staining based analysis; type: organism-based; conditions: in vivo, 264 h, time 11 day
[7] = Antioxidant activity of compound in presence of CO3; type: functional
[8] = Drug accumulation in BALB/c mouse tumor implanted with mouse 4T1 cells assessed as increase in fluorescence intensity at 0.5 mg/kg, iv measured at 96 hrs by DAPI staining based fluorescence microscopic analysis; type: ADME, organism-based, Neoplasm; conditions: in vivo
[9] = Antioxidant activity of compound in presence of NO2; type: functional
Mitochondrial membrane = assay: Induction of mitochondrial membrane potential loss in human NCI-H226 cells at 2 uM incubated for 4 hrs by TMRE staining based fluorescence microscopic analysis; type: cell membranes
NCI-H250 = assay: Antitumor activity against human […] cells xenografted in BALB/c mouse assessed as tumor growth inhibition 0.5 mg/kg, iv measured for 5 days; type: functional, organism-based; conditions: time 5.0 day
[10] = Drug uptake in mouse 4T1 cells assessed as increase in green fluorescence intensity at 5 uM incubated for 30 mins by F-actin staining staining based microscopic analysis; type: ADME, cell-based; conditions: 4t1, 0.5 h
[11] = Drug accumulation in BALB/c mouse plasma implanted with mouse 4T1 cells assessed as increase in fluorescence intensity at 0.5 mg/kg, iv measured at 96 to 120 hrs by imaging based analysis; type: ADME, organism-based; conditions: in vivo, time 96-120 hrs
[12] = Photostability of compound in DMSO-H2O incubated for 1 hr irradiated with deuterium lamp by absorbance based analysis; type: physicochemical; conditions: read-out: Stability

CCCN1/C(=C/C=C2\CCCC(/C=C/C3=[N+](Cc4ccc(C(=O)O)cc4)c4ccccc4C3(C)C)=C2Cl)C(C)(C)c2ccccc21.[Br-]
Activity [1]: Non-toxic
Drug uptake [2]: Active
Activity [3]: Active
logP [4]: 6.09
Drug uptake [5]: Active
Activity [6]: Non-toxic
Activity [7]: Active
Drug uptake [8]: Active
Activity [9]: Active
Activity (Mitochondrial membrane): Active
TGI (NCI-H250): Active
Drug uptake [10]: Active
Drug uptake [11]: Active
remaining at 1 h [12]: 95.8%
